According to patent US20240425496A1, “AZETIDINYL PYRIMIDINES AND USES THEREOF” (Aerie Pharmaceuticals, Inc., priority 2021, published 2024):

Experiments:
TYK2 = TYK2 (Homo sapiens (Human), UniProt P29597); experiment: JAK kinase assay (KINASE-GLO luminescent), TYK2 enzyme; format: biochemical; conditions: TYK2 enzyme 10 nM, Abl peptide substrate
Procedure: (§1) All compounds were initially prepared as 10 mM stocks in anhydrous dimethylsulfoxide (DMSO). […] Test compounds were then serially diluted 1:5 in DMSO for an 11-point concentration response and further diluted in the assay buffer bringing all compound concentrations to a final range of 100 μM to 10 μM in 2.5% DMSO. […] The reaction was initiated by the addition of 10 μL of 4× stock solution ATP (2 μM). Reactions were thoroughly mixed manually, covered, and allowed to incubate at room temperature for 75 min. Protein kinase activity was quantitated using Promega's KINASE-GLO™ luminescent Kinase Assay Kit according to the manufacturer's directions. ATP concentrations remaining in Test wells following the termination of the enzymatic reaction were compared against control wells containing equivalent amounts of DMSO containing no inhibitor (CTRL). […] Percent of Control (POC) values were determined for each concentration of compound tested according to the equation: […]
(§2) IC50 values were calculated using the following 4-parameter logistic curve-fitting algorithm:
(§3) Compounds were prepared in the exact same manner as described in the ROCK Kinase Assay with the exception to the substrate and enzyme. […] All other steps and solutions remain identical to the ROCK Kinase Assay above.

JAK1 = JAK1 (Homo sapiens (Human), UniProt P23458); experiment: JAK kinase assay (KINASE-GLO luminescent), JAK1 enzyme; format: biochemical; conditions: JAK1 enzyme 10 nM, Abl peptide substrate
Sequence of JAK1 (P23458 whole entry, species assumed): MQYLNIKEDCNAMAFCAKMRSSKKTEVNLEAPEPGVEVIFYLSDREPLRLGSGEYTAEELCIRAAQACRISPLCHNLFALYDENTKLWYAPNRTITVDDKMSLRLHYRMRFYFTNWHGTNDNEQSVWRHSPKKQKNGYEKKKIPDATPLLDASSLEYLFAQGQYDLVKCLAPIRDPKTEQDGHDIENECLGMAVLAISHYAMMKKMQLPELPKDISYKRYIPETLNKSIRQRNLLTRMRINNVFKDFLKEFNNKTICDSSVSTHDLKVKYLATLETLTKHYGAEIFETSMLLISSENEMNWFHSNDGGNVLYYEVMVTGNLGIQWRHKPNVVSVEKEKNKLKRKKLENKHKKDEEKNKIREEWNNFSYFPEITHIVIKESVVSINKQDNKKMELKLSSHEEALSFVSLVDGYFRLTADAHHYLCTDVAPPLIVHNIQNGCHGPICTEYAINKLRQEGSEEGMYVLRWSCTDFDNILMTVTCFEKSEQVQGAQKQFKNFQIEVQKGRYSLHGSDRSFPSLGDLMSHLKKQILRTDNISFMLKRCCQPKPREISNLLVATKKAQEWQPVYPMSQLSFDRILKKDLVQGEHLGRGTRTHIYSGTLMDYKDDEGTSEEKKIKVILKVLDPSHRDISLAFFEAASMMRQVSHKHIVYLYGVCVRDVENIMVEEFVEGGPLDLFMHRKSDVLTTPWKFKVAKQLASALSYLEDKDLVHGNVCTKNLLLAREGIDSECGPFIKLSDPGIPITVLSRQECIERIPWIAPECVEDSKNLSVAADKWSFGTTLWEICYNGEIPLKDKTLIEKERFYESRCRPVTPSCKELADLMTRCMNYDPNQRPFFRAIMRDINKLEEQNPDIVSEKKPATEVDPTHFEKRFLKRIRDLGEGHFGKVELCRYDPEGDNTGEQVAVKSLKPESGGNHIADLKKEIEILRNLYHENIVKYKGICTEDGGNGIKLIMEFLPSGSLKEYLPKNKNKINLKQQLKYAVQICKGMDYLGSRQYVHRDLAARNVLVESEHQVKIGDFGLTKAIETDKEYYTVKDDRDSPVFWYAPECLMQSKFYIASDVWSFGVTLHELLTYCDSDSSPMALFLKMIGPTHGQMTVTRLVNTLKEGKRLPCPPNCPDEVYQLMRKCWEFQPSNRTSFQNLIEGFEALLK
Procedure: as §1, §2, §3

Sequence of TYK2 (P29597 whole entry, species assumed): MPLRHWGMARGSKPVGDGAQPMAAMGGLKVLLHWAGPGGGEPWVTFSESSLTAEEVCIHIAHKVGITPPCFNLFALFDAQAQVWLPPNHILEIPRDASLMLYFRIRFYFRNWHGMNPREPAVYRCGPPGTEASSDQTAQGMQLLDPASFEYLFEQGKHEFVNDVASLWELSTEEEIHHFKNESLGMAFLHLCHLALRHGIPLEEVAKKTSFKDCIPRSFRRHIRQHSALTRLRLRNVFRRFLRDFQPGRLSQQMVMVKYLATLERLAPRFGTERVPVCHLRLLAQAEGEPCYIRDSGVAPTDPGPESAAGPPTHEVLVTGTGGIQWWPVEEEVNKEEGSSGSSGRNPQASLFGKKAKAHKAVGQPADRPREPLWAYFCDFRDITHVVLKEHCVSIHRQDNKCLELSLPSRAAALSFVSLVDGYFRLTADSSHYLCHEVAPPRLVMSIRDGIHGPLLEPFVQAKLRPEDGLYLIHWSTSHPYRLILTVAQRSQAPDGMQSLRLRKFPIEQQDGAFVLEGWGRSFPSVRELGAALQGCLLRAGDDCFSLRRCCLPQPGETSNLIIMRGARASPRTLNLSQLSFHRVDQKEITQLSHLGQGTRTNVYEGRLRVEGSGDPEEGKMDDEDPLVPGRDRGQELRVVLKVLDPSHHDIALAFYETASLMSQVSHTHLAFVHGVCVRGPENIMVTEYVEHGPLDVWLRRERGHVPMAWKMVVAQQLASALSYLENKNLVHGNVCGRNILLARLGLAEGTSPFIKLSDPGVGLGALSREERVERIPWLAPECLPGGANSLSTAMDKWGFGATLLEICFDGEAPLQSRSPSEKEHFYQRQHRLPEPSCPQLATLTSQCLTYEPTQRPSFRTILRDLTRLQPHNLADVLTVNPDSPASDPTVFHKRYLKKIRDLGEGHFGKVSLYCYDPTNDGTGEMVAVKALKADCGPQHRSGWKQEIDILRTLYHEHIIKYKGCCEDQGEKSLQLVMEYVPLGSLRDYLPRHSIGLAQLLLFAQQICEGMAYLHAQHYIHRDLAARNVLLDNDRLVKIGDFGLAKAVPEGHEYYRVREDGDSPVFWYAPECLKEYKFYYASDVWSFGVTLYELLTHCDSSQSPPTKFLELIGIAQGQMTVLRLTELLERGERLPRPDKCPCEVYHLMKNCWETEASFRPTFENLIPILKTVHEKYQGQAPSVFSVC

| Structure (SMILES) | IC50 (TYK2) [nM] | IC50 (JAK1) [nM] |
| --- | --- | --- |
| Cc1cc(Nc2ncc(C)c(N3CC(CC#N)(N4CCN(CC(C)(C)F)CC4)C3)n2)sn1 [E52D] | < 20 | < 10 |
| Cc1cc(Nc2ncc(C)c(N3CC(CC#N)(N4CC5NCCOC5C4)C3)n2)sn1 (centres unmarked) [E117-B] | < 100 | < 50 |
| Cc1cc(Nc2ncc(C)c(N3CC(CC#N)(N4CCN5CCN(C)CC5C4)C3)n2)sn1 (centres unmarked) [E73a] | < 100 | < 100 |
| Cc1cnc(Nc2cnn(C)c2)nc1N1CC(CC#N)(N2CC3(C2)CC(F)(F)CO3)C1 [E172a] | < 100 | < 100 |
| Cc1cc(Nc2ncc(C)c(N3CC(CC#N)(N4CCN5CCC[C@@H]5C4)C3)n2)sn1 [E61a] | < 50 | < 50 |
| Cc1cnc(Nc2cnn(C)c2)nc1N1CC(CC#N)(N2CCN3CCC[C@H]3C2)C1 [E162a] | < 50 | < 50 |
| Cc1cc(Nc2ncc(C)c(N3CC(CC#N)(NC(=O)C4CCCCC4(F)F)C3)n2)sn1 (centres unmarked) [E354] | < 50 | < 50 |
| Cc1cc(Nc2ncc(C)c(N3CC(C4CC4)(N4CCCCC4)C3)n2)sn1 [E107a] | < 50 | < 100 |
| Cc1cc(Nc2ncc(C)c(N3CC(C)(CNC(=O)C4CNCC4(F)F)C3)n2)sn1 (centres unmarked) [E286] | < 50 | < 50 |
| Cc1cc(Nc2ncc(C)c(N3CC(CC#N)(N4CC(N(C)C)C4)C3)n2)sn1 [E43] | < 100 | < 150 |
| Cc1cnc(Nc2cccnc2)nc1N1CC(CC#N)(N2CCN(C)CC2)C1 [E117] | < 20 | < 50 |
| Cc1cc(Nc2ncc(C)c(N3CC(CC#N)(NC(=O)c4cccc(C(F)(F)F)c4)C3)n2)sn1 [E315] | < 20 | < 10 |
| Cc1cc(Nc2ncc(C)c(N3CC(CC#N)(N4CCCCC4)C3)n2)sn1 [E10] |  | < 10 |
| Cc1cc(Nc2ncc(C)c(N3CC(CC#N)(N4CCN(C)CC4)C3)n2)sn1 [E5, 2-(1-(5-methyl-2-((3-methylisothiazol-5-yl)amino)pyrimidin-4-yl)-3-(4-methyl-piperazin-1-yl)azetidin-3-yl)acetonitrile] | < 10 |  |

More lines, now with the values ahead:

| IC50 (TYK2) [nM] | IC50 (JAK1) [nM] | Structure (SMILES) |
| --- | --- | --- |
| < 10 | < 10 | Cc1cnc(Nc2ccc3c(c2)CN(C)C3)nc1N1CC(CC#N)(N(C)C2CC2)C1 [E216-C] |
| < 10 | < 10 | Cc1cc(Nc2ncc(C)c(N3CC(CCO)(N4CCN5CCC[C@H]5C4)C3)n2)sn1 [E103a] |
| < 10 | < 10 | Cc1cc(Nc2ncc(C)c(N3CC(CC#N)(N4CCCC(C)C4)C3)n2)sn1 (centres unmarked) [E15] |
| < 10 | < 10 | Cc1cnc(Nc2ccc3c(c2)CN(C)C3)nc1N1CC(CC#N)(N2CCN3C[C@H](F)C[C@H]3C2)C1 [E216] |
| < 10 | < 50 | Cc1cnc(Nc2ccc(N3CCN(C)CC3)cc2)nc1N1CC(CC#N)(N(C)C2CC2)C1 [E213] |
| < 10 | < 10 | COc1cnc(Nc2cc(C)ns2)nc1N1CC(CC#N)(N2CCN3C[C@H](F)C[C@H]3C2)C1 [E101a] |
| < 10 | < 50 | Cc1cc(Nc2ncc(C)c(N3CC(CC#N)(N4C[C@@H](C)N(C)[C@H](C)C4)C3)n2)sn1 [E35] |
| < 10 | < 25 | Cc1cnc(Nc2ccc(N3CCOCC3)c(F)c2)nc1N1CC(CC#N)(N2CCCCC2)C1 [E119] |
| < 10 | < 50 | Cc1cc(Nc2ncc(C)c(N3CC(C4CC4)C3)n2)sn1 [E108a] |
| < 10 | < 10 | CCN1CCN(C2(CC#N)CN(c3nc(Nc4cc(C)ns4)ncc3C)C2)CC1 [E52] |
| < 5 | < 10 | C#CC1(O)CN(c2nc(Nc3cc(C)ns3)ncc2C)C1 [E117-N] |
| < 10 | < 10 | Cc1cnc(Nc2cnn(C3CC3)c2)nc1N1CC(CC#N)(N2CCN3C[C@H](F)C[C@H]3C2)C1 [E175-C] |
| < 10 | < 10 | Cc1cc(Nc2ncc(C)c(N3CC(CC#N)(N4CCC5(CC4)COC5)C3)n2)sn1 [E26] |
| < 10 |  | Cc1cc(Nc2ncc(C)c(N3CC(CC#N)C3)n2)sn1 [E6] |
